Results as given in patent US7612064B2, “Sulfopyrroles” (Takeda Pharmaceutical Company Limited, priority 2003, dated 2009).

Assays:
[1] = Hoechst 33342 nuclear staining; type: cell-based; conditions: for Hoechst 33342 nuclear staining score, H460: H460 cells; for Hoechst 33342 nuclear staining score, HeLa: HeLa cells; for Hoechst 33342 nuclear staining score, Jily: Jily cells; for Hoechst 33342 nuclear staining score, Jurkat: Jurkat cells; for Hoechst 33342 nuclear staining score, MRC5: MRC5 cells;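 as to all read-outs here: apoptotic nuclei scored 0 none 1 weak under 50% of cells 2 strong over 50% of cells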
Method in brief: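 After a further 30 min incubation, plates were inspected on a standard inverted fluorescence microscope. The fraction of apoptotic nuclei and other apoptosis-specific morphology were scored as 0 for no activity, 1 for weak activity in less than 50% of the cells, and 2 for strong activity in more than 50% of the cells.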

MRC5 = assay: MTS proliferation assay; type: cell-based; conditions: MRC5, 72 h
Method in brief: (§1)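 Compounds at final 10/3/1/0.3 μM (added in complete medium, ≤5% DMSO); 72 h, culture conditions; + MTS, 3 h; A492.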

Jily = assay: MTS proliferation assay; type: cell-based; conditions: 72 h
Method in brief: as §1

HeLa = assay: MTS proliferation assay; type: cell-based, human; conditions: 72 h
Method in brief: as §1

Jurkat = assay: MTS proliferation assay; type: cell-based, human; conditions: 72 h
Method in brief: as §1

| Compound | Hoechst 33342 nuclear staining score, H460 ([1]; conc 0.1) | Hoechst 33342 nuclear staining score, H460 ([1]; conc 0.3) | Hoechst 33342 nuclear staining score, H460 ([1]; conc 1) | Hoechst 33342 nuclear staining score, H460 ([1]; conc 3) | Hoechst 33342 nuclear staining score, HeLa ([1]; conc 0.1) | Hoechst 33342 nuclear staining score, HeLa ([1]; conc 0.3) | Hoechst 33342 nuclear staining score, HeLa ([1]; conc 1) | Hoechst 33342 nuclear staining score, HeLa ([1]; conc 3) | Hoechst 33342 nuclear staining score, Jily ([1]; conc 0.1) | Hoechst 33342 nuclear staining score, Jily ([1]; conc 0.3) | Hoechst 33342 nuclear staining score, Jily ([1]; conc 1) | Hoechst 33342 nuclear staining score, Jily ([1]; conc 3) | Hoechst 33342 nuclear staining score, Jurkat ([1]; conc 0.1) | Hoechst 33342 nuclear staining score, Jurkat ([1]; conc 0.3) | Hoechst 33342 nuclear staining score, Jurkat ([1]; conc 1) | Hoechst 33342 nuclear staining score, Jurkat ([1]; conc 3) | Hoechst 33342 nuclear staining score, MRC5 ([1]; conc 0.1) | Hoechst 33342 nuclear staining score, MRC5 ([1]; conc 0.3) | Hoechst 33342 nuclear staining score, MRC5 ([1]; conc 1) | Hoechst 33342 nuclear staining score, MRC5 ([1]; conc 3) | also measured |
| --- | --- | --- | --- | --- | --- | --- | --- | --- | --- | --- | --- | --- | --- | --- | --- | --- | --- | --- | --- | --- | --- |
| COc1ccc(S(=O)(=O)n2cc(CNc3ccc(N4CCOCC4)cc3)cc2-c2cc(OC)ccc2OC)cc1 [Example 95] | 0 | 0 | 0 | 2 (strong activity comprising more than 50% of the cells) | 0 | 0 | 0 | 2 (strong activity comprising more than 50% of the cells) | 0 | 0 | 0 | 2 (strong activity comprising more than 50% of the cells) | 0 | 0 | 0 | 2 (strong activity comprising more than 50% of the cells) | 0 | 0 | 0 | 0 | Hoechst 33342 nuclear staining score, PBLs ([1]; conc 0.1): 0; Hoechst 33342 nuclear staining score, PBLs ([1]; conc 0.3): 0; Hoechst 33342 nuclear staining score, PBLs ([1]; conc 1): 0; Hoechst 33342 nuclear staining score, PBLs ([1]; conc 3): 0; IC50 (MRC5): > 1000 nM; IC50 (Jily): > 1000 nM; IC50 (HeLa): > 1000 nM; IC50 (Jurkat): > 1000 nM |
| COc1ccc(S(=O)(=O)n2cc(CNc3ccc(N4CCOCC4)cc3)cc2-c2ccc(OC)cc2OC)cc1 [Example 96] | 0 | 0 | 0 | 0 | 0 | 0 | 0 | 0 | 0 | 0 | 0 | 1 (weak activity comprising less than 50% of the cells) | 0 | 0 | 0 | 0 | 0 | 0 | 0 | 0 | Hoechst 33342 nuclear staining score, PBLs ([1]; conc 0.1): 0; Hoechst 33342 nuclear staining score, PBLs ([1]; conc 0.3): 0; Hoechst 33342 nuclear staining score, PBLs ([1]; conc 1): 0; Hoechst 33342 nuclear staining score, PBLs ([1]; conc 3): 0; IC50 (MRC5): > 1000 nM; IC50 (Jily): > 1000 nM; IC50 (HeLa): > 1000 nM; IC50 (Jurkat): > 1000 nM |
| COc1ccc(S(=O)(=O)n2cc(CNc3ccc(N4CCOCC4)cc3)cc2-c2ccccc2OC)cc1 [Example 97] | 0 | 0 | 0 | 0 | 0 | 0 | 0 | 0 | 0 | 0 | 0 | 0 | 0 | 0 | 0 | 0 | 0 | 0 | 0 | 0 | Hoechst 33342 nuclear staining score, PBLs ([1]; conc 0.1): 0; Hoechst 33342 nuclear staining score, PBLs ([1]; conc 0.3): 0; Hoechst 33342 nuclear staining score, PBLs ([1]; conc 1): 0; Hoechst 33342 nuclear staining score, PBLs ([1]; conc 3): 0; IC50 (MRC5): > 1000 nM; IC50 (Jily): > 1000 nM; IC50 (HeLa): > 1000 nM; IC50 (Jurkat): > 1000 nM |
| COc1ccc(S(=O)(=O)n2cc(CNc3ccc(N4CCOCC4)cc3)cc2-c2cccc(OC)c2)cc1 [Example 98] | 0 | 0 | 0 | 0 | 0 | 0 | 0 | 0 | 0 | 0 | 0 | 0 | 0 | 0 | 0 | 1 (weak activity comprising less than 50% of the cells) | 0 | 0 | 0 | 0 | Hoechst 33342 nuclear staining score, PBLs ([1]; conc 0.1): 0; Hoechst 33342 nuclear staining score, PBLs ([1]; conc 0.3): 0; Hoechst 33342 nuclear staining score, PBLs ([1]; conc 1): 0; Hoechst 33342 nuclear staining score, PBLs ([1]; conc 3): 0; IC50 (MRC5): > 1000 nM; IC50 (Jily): > 1000 nM; IC50 (HeLa): > 1000 nM; IC50 (Jurkat): > 1000 nM |
| COc1ccc(S(=O)(=O)n2cc(CNc3ccc(N4CCOCC4)cc3)cc2-c2c(OC)cc(OC)cc2OC)cc1 [Example 99] | 0 | 0 | 2 (strong activity comprising more than 50% of the cells) | 2 (strong activity comprising more than 50% of the cells) | 0 | 0 | 2 (strong activity comprising more than 50% of the cells) | 2 (strong activity comprising more than 50% of the cells) | 0 | 0 | 2 (strong activity comprising more than 50% of the cells) | 2 (strong activity comprising more than 50% of the cells) | 0 | 0 | 2 (strong activity comprising more than 50% of the cells) | 2 (strong activity comprising more than 50% of the cells) | 0 | 0 | 1 (weak activity comprising less than 50% of the cells) | 1 (weak activity comprising less than 50% of the cells) | Hoechst 33342 nuclear staining score, PBLs ([1]; conc 0.1): 0; Hoechst 33342 nuclear staining score, PBLs ([1]; conc 0.3): 0; Hoechst 33342 nuclear staining score, PBLs ([1]; conc 1): 0; Hoechst 33342 nuclear staining score, PBLs ([1]; conc 3): 0; IC50 (MRC5): > 1000 nM; IC50 (Jily): < 1000 nM; IC50 (HeLa): < 1000 nM; IC50 (Jurkat): < 1000 nM |
